Measured values taken from patent US20240041042A1, “1-(PYRIDYL)-5-AZINYLPYRAZOLE DERIVATIVES, AND THEIR USE FOR CONTROL OF UNDESIRED PLANT GROWTH” (Bayer Aktiengesellschaft, priority 2020, published 2024).
Read-outs that look alike come from different tables or passages of the source.

Assays:
Format in all cases: in vivo
[1] = test system: Abutilon theophrasti (ABUTH); assay: Pre-emergence herbicidal action against ABUTH; settings: 100% = plants have died
From the text: Seeds of monocotyledonous and dicotyledonous weed plants and crop plants are placed in plastic or organic planting pots and covered with soil. The compounds of the invention, formulated in the form of wettable powders (WP) or as emulsion concentrates (EC), are then applied to the surface of the covering soil as aqueous suspension or emulsion with addition of 0.5% additive at a water application rate equivalent to 600 l/ha. After the treatment, the pots are placed in a greenhouse and kept under good growth conditions for the trial plants. After about 3 weeks, the effect of the preparations is scored visually in comparison with untreated controls as percentages. For example, 100% activity=the plants have died, 0% activity=like control plants.
Tables A1 to A13 below show the effects of selected compounds of the general formula (I) on various harmful plants and at an application rate corresponding to 320 g/ha or lower, which were obtained by the experimental procedure mentioned above. The appendices “a”, “b” and “c” give differentiation by dosage used with otherwise the same harmful plants tested.

[2] = test system: Alopecurus myosuroides (ALOMY); assay: Pre-emergence herbicidal action against ALOMY; settings: scored visually after about 3 weeks, 100% = plants have died
Method in brief: (§1)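 Pre-emergence soil-surface spray, WP/EC formulation, 0.5% additive, 600 l/ha water, rates of 320 g/ha or lower. Greenhouse, ~3 wk. Visual score, % of untreated control (100% = plants dead, 0% = like control).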

[3] = test system: Amaranthus retroflexus (AMARE); assay: Pre-emergence herbicidal action against AMARE; settings: visual scoring after about 3 weeks vs untreated controls
Method in brief: as §1

Avena fatua (AVEFA) [4] = assay: Pre-emergence herbicidal action against AVEFA; settings: visual scoring after about 3 weeks vs untreated controls
Method in brief: as §1

[5] = test system: Echinochloa crus-galli (ECHCG); assay: Pre-emergence herbicidal action against ECHCG
Method in brief: as §1

Lolium rigidum (LOLRI) [6] = assay: Pre-emergence herbicidal action against LOLRI
Method in brief: as §1

[7] = test system: Matricaria inodora (MATIN); assay: Pre-emergence herbicidal action against MATIN
Method in brief: as §1

[8] = test system: Pharbitis purpurea (PHBPU); assay: Pre-emergence herbicidal action against PHBPU
Method in brief: as §1

[9] = test system: Polygonum convolvulus (POLCO); assay: Pre-emergence herbicidal action against POLCO
Method in brief: as §1

Setaria viridis (SETVI) [10] = assay: Pre-emergence herbicidal action against SETVI
Method in brief: as §1

[11] = test system: Verconica persica (VERPE); assay: Pre-emergence herbicidal action against VERPE
Method in brief: as §1

Viola tricolor (VIOTR) = assay: Pre-emergence herbicidal action against VIOTR
Method in brief: as §1

[12] = test system: Abutilon theophrasti (ABUTH); assay: Post-emergence herbicidal action against ABUTH; settings: 80 g/ha, visual rating about 3 weeks after treatment vs untreated controls (100% = plants have died, 0% = like control plants)
Method in brief: (§2)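 Values are percent visual activity (0% like control, 100% plants dead) after about 3 weeks in the greenhouse. Treatment: post-emergence spray at one-leaf stage, 600 l/ha spray volume, 0.5% additive, doses 320 g/ha or lower.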

[13] = test system: Alopecurus myosuroides (ALOMY); assay: Post-emergence herbicidal action against ALOMY; settings: 80 g/ha, visual rating about 3 weeks after treatment vs untreated controls (100% = plants have died, 0% = like control plants)
Method in brief: as §2

[14] = test system: Amaranthus retroflexus (AMARE); assay: Post-emergence herbicidal action against AMARE; settings: 80 g/ha, visual rating about 3 weeks after treatment vs untreated controls (100% = plants have died, 0% = like control plants)
Method in brief: as §2

Avena fatua (AVEFA) [15] = assay: Post-emergence herbicidal action against AVEFA; settings: 80 g/ha, visual rating about 3 weeks after treatment
Method in brief: as §2

[16] = test system: Echinochloa crus-galli (ECHCG); assay: Post-emergence herbicidal action against ECHCG; settings: dosage 80 g/ha
Method in brief: as §2

Lolium rigidum (LOLRI) [17] = assay: Post-emergence herbicidal action against LOLRI; settings: dosage 80 g/ha
Method in brief: as §2

[18] = test system: Pharbitis purpurea (PHBPU); assay: Post-emergence herbicidal action against PHBPU; settings: dosage 80 g/ha
Method in brief: as §2

[19] = test system: Polygonum convolvulus (POLCO); assay: Post-emergence herbicidal action against POLCO; settings: dosage 80 g/ha
Method in brief: as §2

Setaria viridis (SETVI) [20] = assay: Post-emergence herbicidal action against SETVI; settings: dosage 80 g/ha
Method in brief: as §2

[21] = test system: Verconica persica (VERPE); assay: Post-emergence herbicidal action against VERPE; settings: dosage 80 g/ha
Method in brief: as §2

Oryza sativa (ORYSA) = settings: crop plant compatibility
Method in brief: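 Test crops were treated 2 to 3 weeks after sowing, once they reached one leaf, by spraying compound in water with 0.5% additive at 600 l/ha. Visual scoring compared them with untreated controls roughly 3 weeks on, and appendices a, b and c denote different doses.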

[22] = Dosage column 320 g/ha (title prints 3200 g/ha), scored visually after about 3 weeks
[23] = 20 g/ha, effect vs untreated controls
[24] = 80 g/ha, effect in comparison to untreated controls

SMILES	Pre-emergence action against ABUTH [1, 22]	Pre-emergence action against ALOMY ([2]; 80 g/ha)	Pre-emergence action against ALOMY ([2]; 320 g/ha)	Pre-emergence action against AMARE in % ([3]; 80 g/ha)	Pre-emergence action against AMARE in % ([3]; 320 g/ha)	Pre-emergence action against AVEFA in % (Avena fatua (AVEFA) [4]; 320 g/ha)	Pre-emergence action against ECHCG in % ([5]; dosage 320 g/ha)	Pre-emergence action against LOLRI in % (Lolium rigidum (LOLRI) [6]; dosage 80 g/ha)	Pre-emergence action against LOLRI in % (Lolium rigidum (LOLRI) [6]; dosage 320 g/ha)	Pre-emergence action against MATIN in % ([7]; dosage 320 g/ha)	Pre-emergence action against PHBPU in % ([8]; dosage 320 g/ha)	Pre-emergence action against POLCO in % ([9]; dosage 320 g/ha)	Pre-emergence action against SETVI in % (Setaria viridis (SETVI) [10]; dosage 320 g/ha)	Pre-emergence action against VERPE in % ([11]; dosage 320 g/ha)	Pre-emergence action against VIOTR in % (Viola tricolor (VIOTR); 320 g/ha, Viola tricolor)	Pre-emergence action against VIOTR in % (Viola tricolor (VIOTR); dosage 80 g/ha)	Post-emergence action against ABUTH in % [12]	Post-emergence action against ALOMY in % [13]	Post-emergence action against AMARE in % [14]	Post-emergence action against AVEFA in % (Avena fatua (AVEFA) [15])	also measured
O=C(O)COc1nn(-c2ccccn2)c(-c2cncc(F)c2)c1Br [Example I-84]	80%	80%	100%	80%	100%	90%	100%	90%	100%	90%	90%	90%	100%	100%	100%	90%	80%	80%	90%	80%	Pre-emergence action against AVEFA in % (Avena fatua (AVEFA) [4]; 80 g/ha): 80%; Pre-emergence action against ECHCG in % ([5]; dosage 80 g/ha): 80%; Pre-emergence action against MATIN in % ([7]; dosage 80 g/ha): 90%; Pre-emergence action against PHBPU in % ([8]; dosage 80 g/ha): 90%; Pre-emergence action against VERPE in % ([11]; dosage 80 g/ha): 90%; Post-emergence action against ECHCG in % [16]: 80%; Post-emergence action against LOLRI in % (Lolium rigidum (LOLRI) [17]): 90%; Post-emergence action against PHBPU in % [18]: 90%; Post-emergence action against POLCO in % [19]: 90%; Post-emergence action against SETVI in % (Setaria viridis (SETVI) [20]): 80%; Post-emergence action against VERPE in % [21]: 80%; Post-emergence action against ORYSA in % (Oryza sativa (ORYSA); [23]): 0%; Post-emergence action against ORYSA in % (Oryza sativa (ORYSA); [24]): 10%
COC(=O)CCOC(=O)[C@@H](C)Oc1nn(-c2ccccn2)c(-c2cncc(F)c2)c1Br [Example I-73]	90%	90%	100%	100%	100%	80%	90%	100%	100%	90%	90%	90%	100%	100%	100%	100%	80%	100%	90%	80%	Pre-emergence action against ABUTH ([1]; 80 g/ha, scored visually after about 3 weeks vs untreated controls, 0% = like control plants): 80%; Pre-emergence action against POLCO in % ([9]; dosage 80 g/ha): 80%; Pre-emergence action against SETVI in % (Setaria viridis (SETVI) [10]; dosage 80 g/ha): 90%; Post-emergence action against ECHCG in % [16]: 80%; Post-emergence action against LOLRI in % (Lolium rigidum (LOLRI) [17]): 80%; Post-emergence action against PHBPU in % [18]: 90%; Post-emergence action against POLCO in % [19]: 90%; Post-emergence action against SETVI in % (Setaria viridis (SETVI) [20]): 80%; Post-emergence action against VERPE in % [21]: 80%; Post-emergence action against ORYSA in % (Oryza sativa (ORYSA); [23]): 0%; Post-emergence action against ORYSA in % (Oryza sativa (ORYSA); [24]): 10%
